Data on 20 molecules can be found in patent US12692262B2, “Substituted ureas as orexin receptor agonists” (Merck Sharp & Dohme LLC, priority 2020, dated 2026).

Molecules are shown by their SMILES.

This test addresses T1, human OX2R (Homo sapiens, UniProt O43614).
T1 construct: expressed in transfected cells; host or cells: CHO (Chinese hamster ovary) cells grown under G418 selection
T1 sequence (O43614 1-444): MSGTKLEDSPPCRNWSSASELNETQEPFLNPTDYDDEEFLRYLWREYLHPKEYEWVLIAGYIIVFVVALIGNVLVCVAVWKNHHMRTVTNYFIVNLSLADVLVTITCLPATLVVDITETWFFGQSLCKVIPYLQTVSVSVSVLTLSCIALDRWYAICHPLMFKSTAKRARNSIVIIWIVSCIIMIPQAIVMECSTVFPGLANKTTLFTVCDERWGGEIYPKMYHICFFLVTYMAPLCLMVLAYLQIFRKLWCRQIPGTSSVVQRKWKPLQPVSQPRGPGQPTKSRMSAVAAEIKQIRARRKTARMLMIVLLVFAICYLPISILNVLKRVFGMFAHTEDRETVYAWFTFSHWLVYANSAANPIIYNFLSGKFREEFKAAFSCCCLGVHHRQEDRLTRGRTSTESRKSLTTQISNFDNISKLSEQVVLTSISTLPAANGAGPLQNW
Description: IPOne (IP-1 accumulation) assay in CHO cells expressing human OX2R. The test is classed as cell-based. Conditions: for EC50: CHO cells expressing human OX2R, IP-One assay, 2 h incubation, four parameter logistic fit, read-out: OX2R Potency, EC50; for % of maximum agonist effect (relative to Orexin A): percent effect vs mean max effect of a reference compound at 1 uM (100% activity vs Orexin A), human OX2R. In short, it runs like this: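 CHO cells stably expressing human OX2R, grown in Iscove's modified DMEM with 10% FBS; agonist-driven IP-1 accumulation via the Gαq pathway measured by HTRF (D2/AB-cryptate detection after lysis). EC50 taken as the inflection point of a four-parameter logistic fit.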

As for `CCN(C(=O)N[C@@H](CCS(C)(=O)=O)C(F)(F)F)[C@@H](c1cc(-c2cn3ccnc3c(OC)n2)c(OC)cn1)C(F)(F)F` [Example 2-36, 1-ethyl-1-((S)-2,2,2-trifluoro-1-(5-methoxy-4-(8-methoxyimidazo[1,2-a]pyrazin-6-yl)pyridin-2-yl)ethyl)-3-((S)-1,1,1-trifluoro-4-(methylsulfonyl)butan-2-yl)urea], the EC50 was 0.7 nM and the “% of maximum agonist effect (relative to Orexin A)” value turned out to be 100.5%.

In the case of `CCCC(C#N)NC(=O)N(CC)[C@H](C)c1cccc(-c2cn3ccnc3c(OC)n2)c1` (stereo partly drawn) [Example 2-37, 3-(1-cyanobutyl)-1-ethyl-1-((R)-1-(3-(8-methoxyimidazo[1,2-a]pyrazin-6-yl)phenyl)ethyl)urea], the EC50 turned out to be 20 nM and the “% of maximum agonist effect (relative to Orexin A)” value is given as 100.8%.

Consider `CCN(C(=O)NC1CC(C(F)(F)F)C1)[C@@H](c1cc(-c2cn3ccnc3c(OC)n2)c(OC)cn1)C(F)(F)F` (stereo partly drawn) [Example 2-38, (S)-1-ethyl-1-(2,2,2-trifluoro-1-(5-methoxy-4-(8-methoxyimidazo[1,2-a]pyrazin-6-yl)pyridin-2-yl)ethyl)-3-(3-(trifluoromethyl)cyclobutyl)urea], for which the EC50 was 4.2 nM and the “% of maximum agonist effect (relative to Orexin A)” value came to 99.7%.

For `CCN(C(=O)N[C@H]1C[C@@]1(C)C(F)(F)F)[C@@H](c1cc(-c2cn3ccnc3c(OC)n2)c(OC)cn1)C(F)(F)F` [Example 2-39, 1-ethyl-3-((1S,2R)-2-methyl-2-(trifluoromethyl)cyclopropyl)-1-((S)-2,2,2-trifluoro-1-(5-methoxy-4-(8-methoxyimidazo[1,2-a]pyrazin-6-yl)pyridin-2-yl)ethyl)urea], the EC50 was 5.8 nM and the “% of maximum agonist effect (relative to Orexin A)” value is reported as 99.3%.

As for `CCN(C(=O)NC(C)C(C)(F)F)[C@@H](c1cc(-c2cn3ccnc3c(OC)n2)c(OC)cn1)C(F)(F)F` (stereo partly drawn) [Example 2-40, 3-(3,3-difluorobutan-2-yl)-1-ethyl-1-((S)-2,2,2-trifluoro-1-(5-methoxy-4-(8-methoxyimidazo[1,2-a]pyrazin-6-yl)pyridin-2-yl)ethyl)urea], the EC50 amounted to 15.8 nM and the “% of maximum agonist effect (relative to Orexin A)” value was 99.3%.

`CCN(C(=O)NC(C)C(F)F)[C@@H](c1cc(-c2cn3ccnc3c(OC)n2)c(OC)cn1)C(F)(F)F` (stereo partly drawn) [Example 2-41, 3-(1,1-difluoropropan-2-yl)-1-ethyl-1-((S)-2,2,2-trifluoro-1-(5-methoxy-4-(8-methoxyimidazo[1,2-a]pyrazin-6-yl)pyridin-2-yl)ethyl)urea]: the EC50 amounted to 16.3 nM and the “% of maximum agonist effect (relative to Orexin A)” value was found to be 101.2%.

Turning to `CCN(C(=O)NC1CC1(F)F)[C@@H](c1cc(-c2cn3ccnc3c(OC)n2)c(OC)cn1)C(F)(F)F` (stereo partly drawn) [Example 2-42, 3-(2,2-difluorocyclopropyl)-1-ethyl-1-((S)-2,2,2-trifluoro-1-(5-methoxy-4-(8-methoxyimidazo[1,2-a]pyrazin-6-yl)pyridin-2-yl)ethyl)urea], the EC50 is 27.8 nM and the “% of maximum agonist effect (relative to Orexin A)” value is on record as 101.7%.

Regarding `CCN(C(=O)NC(CN1CCOC1=O)C(F)(F)F)[C@@H](c1cc(-c2cn3ccnc3c(OC)n2)c(OC)cn1)C(F)(F)F` (stereo partly drawn) [Example 2-43, 1-ethyl-1-((S)-2,2,2-trifluoro-1-(5-methoxy-4-(8-methoxyimidazo[1,2-a]pyrazin-6-yl)pyridin-2-yl)ethyl)-3-(1,1,1-trifluoro-3-(2-oxooxazolidin-3-yl)propan-2-yl)urea], the EC50 worked out at 1.1 nM and the “% of maximum agonist effect (relative to Orexin A)” value came out at 99.8%.

Consider `CCN(C(=O)N[C@@H](CC(OC)C(F)(F)F)C(F)(F)F)[C@@H](c1cc(-c2cn3cc(C)nc3c(OC)n2)c(OC)cn1)C(F)(F)F` (stereo partly drawn) [Example 2-44, 1-ethyl-3-((2S)-1,1,1,5,5,5-hexafluoro-4-methoxypentan-2-yl)-1-((S)-2,2,2-trifluoro-1-(5-methoxy-4-(8-methoxy-2-methylimidazo[1,2-a]pyrazin-6-yl)pyridin-2-yl)ethyl)urea], for which the EC50 amounted to 4.8 nM and the “% of maximum agonist effect (relative to Orexin A)” value is listed as 100.6%.

`CCN(C(=O)NC(CCC(F)(F)F)C1CCO1)[C@@H](c1cc(-c2cn3ccnc3c(OC)n2)c(OC)cn1)C(F)(F)F` (stereo partly drawn) [Example 2-45, 1-ethyl-1-((S)-2,2,2-trifluoro-1-(5-methoxy-4-(8-methoxyimidazo[1,2-a]pyrazin-6-yl)pyridin-2-yl)ethyl)-3-(4,4,4-trifluoro-1-(oxetan-2-yl)butyl)urea]: the EC50 was found to be 1.9 nM and the “% of maximum agonist effect (relative to Orexin A)” value is reported as 99.8%.

Turning to `CCN(C(=O)NC(CC1CCCO1)C(F)(F)F)[C@@H](c1cc(-c2cn3cc(C)nc3c(OC)n2)c(OC)cn1)C(F)(F)F` (stereo partly drawn) [Example 2-46, 1-ethyl-1-((S)-2,2,2-trifluoro-1-(5-methoxy-4-(8-methoxy-2-methylimidazo[1,2-a]pyrazin-6-yl)pyridin-2-yl)ethyl)-3-(1,1,1-trifluoro-3-(tetrahydrofuran-2-yl)propan-2-yl)urea], the 50% effective concentration (EC50) stood at 11.7 nM and the “% of maximum agonist effect (relative to Orexin A)” value was 100.9%.

As for `CCN(C(=O)NC(C1CCCOC1)C(F)(F)F)[C@@H](c1cc(-c2cn3cc(C)nc3c(OC)n2)c(OC)cn1)C(F)(F)F` (stereo partly drawn) [Example 2-47, 1-ethyl-1-((S)-2,2,2-trifluoro-1-(5-methoxy-4-(8-methoxy-2-methylimidazo[1,2-a]pyrazin-6-yl)pyridin-2-yl)ethyl)-3-(2,2,2-trifluoro-1-(tetrahydro-2H-pyran-3-yl)ethyl)urea], the EC50 is 16.7 nM and the “% of maximum agonist effect (relative to Orexin A)” value is given as 100.7%.

Turning to `CCN(C(=O)NC(C1CCOCC1)C(F)(F)F)[C@@H](c1cc(-c2cn3cc(C)nc3c(OC)n2)c(OC)cn1)C(F)(F)F` (stereo partly drawn) [Example 2-48, 1-ethyl-1-((S)-2,2,2-trifluoro-1-(5-methoxy-4-(8-methoxy-2-methylimidazo[1,2-a]pyrazin-6-yl)pyridin-2-yl)ethyl)-3-(2,2,2-trifluoro-1-(tetrahydro-2H-pyran-4-yl)ethyl)urea], the EC50 was 17.6 nM and the “% of maximum agonist effect (relative to Orexin A)” value was 101.0%.

Turning to `CCN(C(=O)NC(CCC(F)(F)F)COC)[C@@H](c1cc(-c2cn3cc(C)nc3c(OC)n2)c(OC)cn1)C(F)(F)F` (stereo partly drawn) [Example 2-49, 1-ethyl-1-((S)-2,2,2-trifluoro-1-(5-methoxy-4-(8-methoxy-2-methylimidazo[1,2-a]pyrazin-6-yl)pyridin-2-yl)ethyl)-3-(5,5,5-trifluoro-1-methoxypentan-2-yl)urea], the EC50 was determined as 99.4 nM and the “% of maximum agonist effect (relative to Orexin A)” value was 100.1%.

Take `CCN(C(=O)N[C@@H](CCC(F)(F)F)C(F)(F)F)C(c1cnc(OC)c(-c2cn3ccnc3c(OC)n2)c1)C(F)(F)F` (stereo partly drawn) [Example 2-50, 1-ethyl-3-((S)-1,1,1,5,5,5-hexafluoropentan-2-yl)-1-(2,2,2-trifluoro-1-(6-methoxy-5-(8-methoxyimidazo[1,2-a]pyrazin-6-yl)pyridin-3-yl)ethyl)urea]: the EC50 came to 1.4 nM and the “% of maximum agonist effect (relative to Orexin A)” value stood at 100.5%.

As for `CCN(C(=O)N[C@@H](CCC(F)(F)F)C(F)(F)F)[C@H](C)c1cc(-c2cc3ccnn3c(OC)n2)c(OC)cn1` [Example 2-51, 1-ethyl-3-((S)-1,1,1,5,5,5-hexafluoropentan-2-yl)-1-((R)-1-(5-methoxy-4-(7-methoxypyrazolo[1,5-c]pyrimidin-5-yl)pyridin-2-yl)ethyl)urea], the EC50 was determined as 1 nM and the “% of maximum agonist effect (relative to Orexin A)” value was 98.7%.

Turning to `CCN(C(=O)NC(CC(F)F)C(F)(F)F)[C@H](C)c1cccc(-c2cn3ccnc3c(OC)n2)c1` (stereo partly drawn) [Example 2-52, 1-ethyl-1-((R)-1-(3-(8-methoxyimidazo[1,2-a]pyrazin-6-yl)phenyl)ethyl)-3-(1,1,1,4,4-pentafluorobutan-2-yl)urea], the EC50 was determined as 35.8 nM and the “% of maximum agonist effect (relative to Orexin A)” value is recorded as 100.6%.

Regarding `CCN(C(=O)NC(C1CC(F)(F)CCN1C)C(F)(F)F)[C@H](C)c1cccc(-c2cc(OC)n3nccc3c2)c1` (stereo partly drawn) [Example 2-53, 3-(1-(4,4-difluoro-1-methylpiperidin-2-yl)-2,2,2-trifluoroethyl)-1-ethyl-1-((R)-1-(3-(7-methoxypyrazolo[1,5-a]pyridin-5-yl)phenyl)ethyl)urea], the EC50 worked out at 1.5 nM and the “% of maximum agonist effect (relative to Orexin A)” value is reported as 101.6%.

Take `CCN(C(=O)NC(CCC(C)=O)C(F)(F)F)[C@H](C)c1cccc(-c2cn3ccnc3c(OC)n2)c1` (stereo partly drawn) [Example 2-54, 1-ethyl-1-((R)-1-(3-(8-methoxyimidazo[1,2-a]pyrazin-6-yl)phenyl)ethyl)-3-(1,1,1-trifluoro-5-oxohexan-2-yl)urea]: the EC50 amounted to 1.6 nM and the “% of maximum agonist effect (relative to Orexin A)” value was 99.4%.

For the molecule `CCN(C(=O)NC(CCC(F)(F)F)C(C)(F)F)[C@H](C)c1cccc(-c2cn3ccnc3c(OC)n2)c1` (stereo partly drawn) [Example 2-55, 1-ethyl-1-((R)-1-(3-(8-methoxyimidazo[1,2-a]pyrazin-6-yl)phenyl)ethyl)-3-(2,2,6,6,6-pentafluorohexan-3-yl)urea], the EC50 was found to be 129 nM and the “% of maximum agonist effect (relative to Orexin A)” value is recorded as 99.4%.
